Converted amounts (≈) assume the structure as drawn. Blank lines part the entries; values can stand above or below the molecule they belong to. Numbered stars: 1 amine (or outer) side, 2 acyl side, 3 side chain; on linkers, the order of the positions; unused ones are H or OH. Square brackets hold non-standard residues; d marks the D form. Peptide text beside a SMILES is read from it. X1 = CC(C)(O)/C=C/[C@]12C[C@@H](C(=O)[*:2])N([*:1])[C@@H]1Nc1ccc(Br)cc12
Tests used:
HCT-8 = test: Cytotoxicity against human HCT-8 cells assessed as inhibition of cell growth incubated for 48 hrs by MTT assay; assay type: functional, cell-based; conditions: HCT-8, 48 h
MH60 = test: Cytotoxicity in mouse MH60 cells assessed as inhibition of cell growth; assay type: functional, cell-based
Candida albicans = test: Antifungal activity against Candida albicans assessed as reduction in […] growth; assay type: functional
MDA-MB-231 = test: Growth inhibition of human MDA-MB-231 cells assessed inhibition of cell growth; assay type: functional
Bacillus mycoides = test: Antibacterial activity against Bacillus mycoides assessed as reduction in bacterial growth; assay type: functional
Staphylococcus aureus [1] = test: Antibacterial activity against methicillin resistant Staphylococcus aureus assessed as reduction in bacterial growth; assay type: functional, organism-based
[2] = test system: Mycolicibacterium smegmatis; test: Antibacterial activity against Mycolicibacterium smegmatis assessed as reduction in bacterial growth; assay type: functional
Bacillus subtilis [3] = test: Antibacterial activity against Bacillus subtilis ATCC 6633 assessed as reduction in bacterial growth; assay type: functional
HeLa = test: Cytotoxicity against human HeLa cells assessed as inhibition of cell growth; assay type: functional, cell-based
Staphylococcus aureus [4] = test: Antibacterial activity against Staphylococcus aureus FDA 209P JC-1 assessed as reduction in bacterial growth; assay type: functional
Vibrio harveyi [5] = test: Antimicrobial activity against Vibrio harveyi assessed as bacterial growth inhibition incubated for 12 hrs by serial dilution analysis; assay type: functional
Prorocentrum minimum = test: Antimicrobial activity against Prorocentrum minimum assessed as […] growth inhibition; assay type: functional
RAW264.7 = test: Antiinflammatory activity in mouse RAW264.7 cells assessed as inhibition of LPS-induced NO production pretreated with compound for 1 hr followed by LPS-induction and measured after 48 hrs by microplate reader analysis; assay type: functional, cell-based
Vibrio harveyi [6] = test: Antimicrobial activity against Vibrio harveyi assessed as bacterial growth inhibition; assay type: functional
[7] = Antioxidant activity assessed as DPPH radical scavenging activity; assay type: functional
Bacillus subtilis [8] = test: Antibacterial activity against Bacillus subtilis KCTC 1021 assessed as reduction in bacterial growth incubated for 24 hrs by Mueller-Hinton broth based assay; assay type: functional
Kocuria rhizophila = test: Antibacterial activity against Kocuria rhizophila KCTC 1915 assessed as reduction in bacterial growth incubated for 24 hrs by Mueller-Hinton broth based assay; assay type: functional
Staphylococcus aureus [9] = test: Antibacterial activity against Staphylococcus aureus KCTC 1927 assessed as reduction in bacterial growth incubated for 24 hrs by Mueller-Hinton broth based assay; assay type: functional
Staphylococcus aureus [10] = test: Antibacterial activity against Staphylococcus aureus assessed as reduction in bacterial growth; assay type: functional
Bacillus cereus = test: Antibacterial activity against Bacillus cereus assessed as reduction in bacterial growth; assay type: functional
ACHN = test: Growth inhibition of human ACHN cells assessed as cell viability incubated for 48 hrs by SRB assay; assay type: functional; conditions: pooled result: one value given for 6 cell lines, strains, targets or settings
Micrococcus luteus = test: Antimicrobial activity against Micrococcus luteus assessed as bacterial growth inhibition; assay type: functional
Bacillus subtilis [11] = test: Antibacterial activity against Bacillus subtilis assessed as reduction in bacterial growth; assay type: functional
HepG2 = test: Cytotoxicity against human HepG2 cells assessed as inhibition of cell growth; assay type: functional, cell-based
HL-60 = test: Cytotoxicity against human HL-60 cells assessed as inhibition of cell growth; assay type: functional, cell-based
Escherichia coli = test: Antibacterial activity against Escherichia coli assessed as reduction in bacterial growth; assay type: functional
[12] = test system: Trypanosoma brucei rhodesiense; test: Antitrypanosomal activity against Trypanosoma brucei rhodesiense; assay type: functional, organism-based
MOLT-4 = test: Cytotoxicity against human MOLT-4 cells assessed as inhibition of cell growth incubated for 24 hrs by MTT assay; assay type: functional, cell-based; conditions: MOLT-4, 24 h

Compound: C=C(COC(=O)Cc1ccc(O)c(Cl)c1)[C@@]12O[C@@H]1[C@@]1(C)C(=CC2=O)CC[C@@H](O)[C@@H]1C
IC50 (HCT-8): 7.3 µM

Compound: CC(C)=CCC1OC1(C)C1(O)C(O)C(=O)CC[C@]1(O)CCl (stereo partly drawn)
IC50 (MH60): 7.5 µM

Compound: O=C1NC(=O)c2c1c1c3cc(Cl)ccc3[nH]c1c1[nH]c3ccc(Cl)cc3c21
MIC (Candida albicans): 1 µg/mL (≈ 2.54 µM)

Compound: COc1ccc2[nH]c3c(O)cccc3c2c1Cl
MIC (Bacillus mycoides): 32 µg/mL (≈ 129 µM) | MIC (Staphylococcus aureus [1]): 32 µg/mL (≈ 129 µM) | MIC (Candida albicans): 32 µg/mL (≈ 129 µM) | MIC [2]: 32 µg/mL (≈ 129 µM)

Compound: COC(=O)/C=C/C(=O)N[C@H](Cc1ccc(O)c(Cl)c1)C(=O)OC
MIC (Vibrio harveyi [6]): 16 µg/mL (≈ 46.8 µM)

Compound: C/C=C(\C)c1c(Cl)c(O)c(C)c2c1Oc1c(C)c(O)c(Cl)c(/C(C)=C/C)c1C(=O)O2
MIC (Staphylococcus aureus [10]): 1.56 µg/mL | MIC (Bacillus cereus): 1.56 µg/mL (≈ 3.47 µM)

Compound: O=C1Oc2cc(Br)c(O)c(Br)c2/C1=C/c1cc(Br)c(O)c(Br)c1
MIC (Staphylococcus aureus [10]): 5.2 µM

Compound: CC(C)c1cc(=O)c2c(cc(O)c3c(=O)c4c(O)c(Br)ccc4c(=O)c32)c1=O
IC50 (HepG2): 9.3 µM | IC50 (Staphylococcus aureus [1]): 0.098 µg/mL (≈ 0.222 µM)

Compound: CC(C)[C@@]1(O)/C=C/[C@](C)(O)CC[C@H](Cl)[C@@]2(C)CC[C@H](O2)[C@](C)(O)CC1
IC50 (HL-60): 3.67 µM

Compound: C[C@]12NC(=N)N[C@@]1(O)c1nc(-c3c[nH]c4ccccc34)cnc1-c1c2[nH]c2cc(Br)ccc12
MIC (Bacillus subtilis [11]): 18.5 µM (≈ 9.26 µg/mL) | MIC (Escherichia coli): 37.5 µM (≈ 18.8 µg/mL)

Compound: CC(=O)O[C@@H](C/C=C/Cl)[C@@H](C)C(=O)/C=C/CCNC(=O)CC/C=C/C(C)(C)C
IC50 [12]: 1.2 µM

Compound: CC[C@H](C)[C@H]1O[C@H](CC(C)=O)O[C@@]1(C)/C=C/C1=CC2=C(Cl)C(=O)[C@](C)(O)[C@H](OC(C)=O)[C@H]2CO1
MIC (Staphylococcus aureus [1]): 25 µg/mL (≈ 50.3 µM)

Compound: CC(C)C[C@@H]1NC(=O)[C@@H]2C[C@]3(/C=C/C(C)(C)O)c4cc(Br)ccc4N[C@H]3N2C(=O)[C@@H]2CCCN2C(=O)[C@H](C(C)C)NC(=O)[C@@H]2CCCN2C(=O)[C@H](CC(C)C)NC(=O)[C@@H]2CCCN2C(=O)[C@H](CC(C)C)NC(=O)[C@@H]2CCCN2C(=O)[C@H](Cc2ccccc2)NC1=O (cyclo(FPLPLPVP[X1]L))
IC50 (MOLT-4): 4.7 µM

Compound: O=C(N[C@H](CO)[C@H](O)c1ccc([N+](=O)[O-])cc1)C(Cl)Cl [CHLORAMPHENICOL]
MIC (Vibrio harveyi [5]): 2 µg/mL (≈ 6.19 µM)

Compound: O=C(O)c1cn(C2CC2)c2cc(N3CCNCC3)c(F)cc2c1=O [CIPROFLOXACIN]
MIC (Escherichia coli): 0.025 µM (≈ 0.00828 µg/mL)

More lines, main results first:

GI50 (MDA-MB-231): 0.72 µM
Compound: CCCC[C@H]1CCC[C@@H](Cl)C[C@@H](OC)c2cc(O)c(c(O)c2)[C@@H](CC)CCC[C@@H](Cl)C[C@@H](OC)c2cc(O)c1c(O)c2

MIC (Bacillus subtilis [3]): 0.001 µg/mL (≈ 0.00171 µM) | MIC (Staphylococcus aureus [4]): 0.001 µg/mL (≈ 0.00171 µM)
Compound: CO[C@H]1C[C@@H](O)[C@H](OC)c2oc3c4c5c(c(O)c3c(=O)c21)-c1c(cc2c(Cl)c(C)n(N)c(=O)c2c1O)C[C@H]5OCO4
IC50 (HeLa): 40 pM

MIC (Vibrio harveyi [5]): 8 µg/mL (≈ 11.5 µM) | MIC (Prorocentrum minimum): 0.61 µg/mL (≈ 0.876 µM)
Compound: COc1cc(OC)c2c(O)c3c(=O)cc(C)oc3c(-c3c(OC)cc4c(I)c(O)c5c(=O)cc(C)oc5c4c3OC)c2c1

IC50 (RAW264.7): 3.69 µM
Compound: C#C/C=C\CC(Br)[C@@H]1C[C@@H](OC(C)=O)[C@H](CCCCCC)O1 (stereo partly drawn)

IC50 [7]: 3.5 µM
Compound: O=Cc1cc(Br)c(O)c(O)c1Cc1ccc(O)c(Br)c1

MIC (Bacillus subtilis [8]): 1 µg/mL (≈ 1.88 µM) | MIC (Kocuria rhizophila): 1 µg/mL (≈ 1.88 µM) | MIC (Staphylococcus aureus [9]): 1 µg/mL (≈ 1.88 µM)
Compound: CC(C)=C(C/C=C(\C)CC[C@@H](Cl)C(C)(C)Cl)C[C@@]1(O)C(=O)c2cc(O)cc(O)c2C(=O)[C@@]1(C)Cl

GI50 (MDA-MB-231): 0.72 µM
Compound: CCCC[C@@H](Cl)CCC[C@@H](Cl)C[C@@H](OC)c1cc(O)c([C@@H](CCCC)CCC[C@@H](Cl)C[C@@H](OC)c2cc(O)cc(O)c2)c(O)c1

GI50 (ACHN): 4.9 µM | MIC (Staphylococcus aureus [10]): 0.7 µM | MIC (Micrococcus luteus): 0.7 µM (≈ 0.215 µg/mL) | MIC (Bacillus subtilis [11]): 0.7 µM (≈ 0.215 µg/mL)
Compound: CC(C)Cc1c(O)cc2oc3cc(Cl)cn3c(=O)c2c1O

GI50 (MDA-MB-231): 0.72 µM
Compound: CCCC[C@H]1CCCCC[C@@H](OC)c2cc(O)c(c(O)c2)[C@@H](CCCC)CCC[C@@H](Cl)C[C@@H](OC)c2cc(O)c1c(O)c2

Source: ChEMBL document CHEMBL5385919, “A Survey of Recently Discovered Naturally Occurring Organohalogen Compounds” (J Nat Prod, 2024)
